Results on 29 compounds are retold here after patent US5116855A, “Rhodanine derivatives and pharmaceutical compositions” (Nisshin Flour Milling Co., Ltd., priority 1989, dated 1992).

Broadly, the inhibition is how much of the control response was suppressed.

The target of this experiment is T1, aldose reductase (Rattus norvegicus, UniProt P07943).
T1 construct: the lenses were excised and homogenized in cold distilled water; from tissue; host or cells: lens of male SD rats, homogenate supernatant (crude enzyme)
Nature of the experiment: Inhibitory activity against aldose reductase (crude enzyme from rat lenses, NADPH oxidation at 340 nm, D,L-glyceraldehyde substrate). Type of experiment: biochemical. As to conditions: aldose reductase from SD rat lenses, pH 6.2, 30° C.; for inhibition at 10 µM: pH 6.2, 10^-5 M; for inhibition at 10 µM / inhibition at 1 µM: read-out: Percentage of inhibition (%); for inhibition at 1 µM: pH 6.2, 10^-6 M. The method, then:
The compounds of the present invention were evaluated for the inhibitory activity against aldose reductase according to the following assay procedure.
Enzyme activity was assayed according to the modification [Biochemical Pharmacology, 25, 2505 (1976)] of the method described in J. Biol. Chem., 240, 877-882 (1965).
SD strain male rats were sacrificed by decapitation, the lenses were excised and homogenized in cold distilled water. The homogenate was then centrifuged and the supernatant was used as the crude aldose reductase solution.
Separately, a 0.1 M sodium phosphate buffer (pH 6.2) containing 0.4 M ammonium sulfate was prepared at 30° C. In this buffer were dissolved the present compound, the crude aldose reductase solution and nicotinamide-adenine dinucleotide phosphate, reduced form (NADPH). The mixture was preincubated at 30° C. for 3 minutes and the reaction was initiated by addition of D,L-glyceraldehyde. In this case, the concentration of the present compound dissolved was 10^-5 M and 10^-6 M, respectively. The total amount of the assay mixture was 1.0 ml, containing 0.16 mM of NADPH, 10 mM of D,L-glyceraldehyde and 0.010-0.016 units of aldose reductase.
The inhibitory activity of the present compounds against aldose reductase was measured using each 1.0 ml of the reaction mixture containing the present compound in the above concentration. In this measurement, the rate of NADPH oxidation was followed by recording the decrease in absorbance at 340 nm. The inhibitory activity of the present compounds against aldose reductase as measured was expressed in percentage of inhibition (%) as a relative activity based on a control value.

As to `CCCC(C=Cc1ccc(C(=O)O)cc1)=C1SC(=S)NC1=O` (single isomer, unassigned) [3 Isomer B], the “Percentage of inhibition (%)” value runs as follows: (10^-5 M) 80.5%; (10^-6 M) 34.5%.
Turning to `CCCCCCC(CCc1ccc(CCC(=O)O)cc1)=C1SC(=S)NC1=O` (single isomer, unassigned) [33 Isomer A], the inhibition at 10 µM turned out to be 42.9%.
Still for that read-out and setting: next, `CCOC(=O)CCC(C=Cc1cccs1)=C1SC(=S)NC1=O` (single isomer, unassigned) [13 Isomer A]: 56%.
In the case of `COc1cc(CCC(C)=C2SC(=S)NC2=O)ccc1OCC(=O)O` [Example 69, 2-Methoxy-4-[3-(4-oxo-2-thioxo-5-thiazolinylidene)butyl]-phenoxyacetic acid], the inhibition at 10 µM was 78.4% and the inhibition at 1 µM amounted to 46.4%.
Consider `CC(C=Cc1cc(Br)cc(Br)c1OCC(=O)O)=C1SC(=S)NC1=O` [Example 81, 2,4-Dibromo-6-[3-(4-oxo-2-thioxo-5-thiazolinylidene)-1-butenyl]phenoxyacetic acid], for which the inhibition at 10 µM came to 75.4%.
Take `COC(=O)COc1ccc(C(C)C)cc1C=CC(C)=C1SC(=S)NC1=O` (single isomer, unassigned) [62 Isomer B]: the “Percentage of inhibition (%)” value (10^-5 M) came to 66.7%.
In the case of `CC(C=Cc1cc(C(C)C)c(OCC(=O)O)c(C(C)C)c1)=C1SC(=S)NC1=O` [Example 77, 2,6-Diisopropyl-4-[3-(4-oxo-2-thioxo-5-thiazolinylidene)-1-butenyl]phenoxyacetic acid], the inhibition at 10 µM worked out at 82.8% and the inhibition at 1 µM turned out to be 41.4%.
Consider `CCOC(=O)CCC(C=Cc1ccc(C(=O)OC)cc1)=C1SC(=S)NC1=O` [Example 12, Ethyl 6-(4-methoxycarbonylphenyl)-4-(4-oxo-2-thioxo-5-thiazolidinylidene)-5-hexenoate], for which the inhibition at 10 µM was determined as 42.8%.
In the case of `O=C(O)CCC(C=Cc1cccc(O)c1)=C1SC(=S)NC1=O` (single isomer, unassigned) [Example 25, 6-(3-Hydroxyphenyl)-4-(4-oxo-2-thioxo-5-thiazolidinylidene)-5-hexenoic acid], the inhibition at 10 µM came to 82% and the inhibition at 1 µM worked out at 32.9%.
For `CC(C=Cc1cc(C)c(OCC(=O)O)c(C)c1)=C1SC(=S)NC1=O` [Example 87, 2,6-Dimethyl-4-[3-(4-oxo-2-thioxo-5-thiazolinylidene)-1-butenyl]phenoxyacetic acid] the same measures were 89.6% and 60.5%.
Consider `CCOC(=O)CCC(C=Cc1ccc(C(F)(F)F)cc1)=C1SC(=S)NC1=O` (single isomer, unassigned) [6 Isomer A], for which the inhibition at 10 µM turned out to be 35%.
For `CCOC(=O)CCC(C=Cc1ccc(OC)c(OC)c1)=C1SC(=S)NC1=O` [Example 2, Ethyl 6-(3,4-dimethoxyphenyl)-4-(4-oxo-2-thioxo-5-thiazolidinylidene)-5-hexenoate], the inhibition at 10 µM was determined as 72% and the inhibition at 1 µM amounted to 48.6%.
With `COc1ccc(C=CC(CCCC(=O)O)=C2SC(=S)NC2=O)cc1OC` (single isomer, unassigned) [38 Isomer A], the inhibition at 10 µM was 95.7% and the inhibition at 1 µM worked out at 86.8%.
Take `O=C(O)CCC(C=Cc1cccs1)=C1SC(=S)NC1=O` [Example 30, 6-(2-Thienyl)-4-(4-oxo-2-thioxo-5-thiazolidinylidene)-5-hexenoic acid]: the inhibition at 10 µM worked out at 73%.
For the compound `CCCC(CCc1ccccc1OCC(=O)O)=C1SC(=S)NC1=O` (single isomer, unassigned) [27 Isomer A], the inhibition at 10 µM turned out to be 90.6% and the inhibition at 1 µM came out at 53.1%.
For `CC(C=Cc1cc(Cl)cc(Cl)c1OCC(=O)O)=C1SC(=S)NC1=O` [Example 80, 2,4-Dichloro-6-[3-(4-oxo-2-thioxo-5-thiazolinylidene)-1-butenyl]phenoxyacetic acid] the same measures were 86.6% and 43%.
For the compound “Ethyl 4-[3-(4-oxo-2-thioxo-5-thiazolidinylidene)-1-butenyl]-methoxyphenoxyacetate [Example 15]”, the “Percentage of inhibition (%)” value is, setting by setting: (10^-5 M) 66.7%; (10^-6 M) 35.3%.
Turning to `CCOc1cc(C=CC(C)=C2SC(=S)NC2=O)ccc1OCC(=O)O` [Example 70], the inhibition at 10 µM is 87.4% and the inhibition at 1 µM was 62.2%.
For `COC(=O)COc1ccc(Br)cc1C=CC(C)=C1SC(=S)NC1=O` [Example 56, Methyl 4-bromo-2-[3-(4-oxo-2-thioxo-5-thiazolinylidene)-1-butenyl]phenoxyacetate], the inhibition at 10 µM was determined as 63.9% and the inhibition at 1 µM turned out to be 27.1%.
`CCOC(=O)COc1ccc(C=CC(C)=C2SC(=S)N(C)C2=O)cc1OC` (single isomer, unassigned) [55 Isomer B]: the “Percentage of inhibition (%)” value reads like this: (10^-5 M) 47.5%; (10^-6 M) 24.3%.
On to `CCCC(=Cc1ccccc1OCC(=O)OC)C=C1SC(=S)NC1=O` (single isomer, unassigned) [61 Isomer B], for which the “Percentage of inhibition (%)” value was 77.2% (10^-5 M) and 39.0% (10^-6 M).
With `O=C(O)CCC(C=Cc1ccccc1F)=C1SC(=S)NC1=O` (single isomer, unassigned) [Example 22, 6-(2-Fluorophenyl)-4-(4-oxo-2-thioxo-5-thiazolidinylidene)-5-hexenoic acid], the inhibition at 10 µM was found to be 88.1% and the inhibition at 1 µM is 41.9%.
For `CCCCCCC(CCc1ccc(CCC(=O)O)cc1)=C1SC(=S)NC1=O` (single isomer, unassigned) [33 Isomer B], the “Percentage of inhibition (%)” value (10^-5 M) is 30.5%.
For the compound `COc1cccc(C=CC(C)=C2SC(=S)NC2=O)c1OCC(=O)O` [Example 72, 2-Methoxy-6-[3-(4-oxo-2-thioxo-5-thiazolinylidene)-1-butenyl] phenoxyacetic acid], the inhibition at 10 µM came to 80.1% and the inhibition at 1 µM is 24.8%.
Take `CC(C=Cc1ccc(OCC(=O)O)c(OCC(=O)O)c1)=C1SC(=S)NC1=O` (single isomer, unassigned) [83 Isomer B]: the “Percentage of inhibition (%)” value (10^-5 M) amounted to 75.8% and the “Percentage of inhibition (%)” value (10^-6 M) stood at 36.8%.
Take `CC(CCCC(=O)Nc1ccccc1C(=O)O)=C1SC(=S)NC1=O` [Example 37, N-[5-(4-Oxo-2-thioxo-5-thiazolidinylidene)hexanoyl]anthranilic acid]: the inhibition at 10 µM came out at 56.4%.
In the case of `COc1cc(C=CC(C)=C2SC(=S)N(C)C2=O)ccc1OCC(=O)O` [Example 78, 2-Methoxy-4-[3-(3-methyl-4-oxo-2-thioxo-5-thiazolinylidene)-1-butenyl]phenoxyacetic acid], the inhibition at 10 µM was found to be 87.1% and the inhibition at 1 µM turned out to be 65.9%.
Turning to `COc1cc(C=CC(C)=C2SC(=S)NC2=O)cc(OC)c1OCC(=O)O` [Example 74, 2,6-Dimethoxy-4-[3-(4-oxo-2-thioxo-5-thiazolinylidene)-1-butenyl]phenoxyacetic acid], the inhibition at 10 µM was 74.3%.
Take `COC(=O)c1ccccc1NC(=O)C(C)=C1SC(=S)NC1=O` [Example 18, Methyl N-[2-(4-oxo-2-thioxo-5-thiazolidinylidene)propionyl]anthranilate]: the inhibition at 10 µM came out at 84% and the inhibition at 1 µM turned out to be 62.6%.
